Reference: the NIST ThermoML archive (doi:10.1021/je100967k)

Key:
[1] = refractive index (Na D-line) (dimensionless); xn = mol fraction of the nth substance listed; details: 101 kPa, Liquid, Standard Abbe refractometry
[2] = xn = mol fraction of the nth substance listed; details: 101 kPa, Liquid; for speed of sound: Pulse-echo method

CN1CCCC1=O [N-methylpyrrolidone] + O
Details	mass density, [2] [kg/m3]	refractive index, [1]	speed of sound, [2] [m/s]	viscosity, [2] [mPa·s]
293.15 K, x1 = 0.1	1030.11	1.3907	1713.9	3.332
293.15 K, x1 = 0.2	1047.15	1.4221	1766.5	5.903
293.15 K, x1 = 0.3001	1052.4	1.4402	1751.6	6.774
293.15 K, x1 = 0.3994	1051.69	1.4507	1718.4	5.724
293.15 K, x1 = 0.4997	1048.9	1.4573	1683.7	4.469
293.15 K, x1 = 0.6001	1045.08	1.4618	1651.6	3.566
293.15 K, x1 = 0.6997	1041.48	1.4648	1623.8	2.865
293.15 K, x1 = 0.7982	1038.44	1.4673	1601.2	2.394
293.15 K, x1 = 0.899	1035.42	1.469	1581	2.041
293.15 K, x1 = 1	1032.87	1.4706	1565.3	1.858
303.15 K, x1 = 0.1	1023.58	1.3882	1694.6	2.372
303.15 K, x1 = 0.2	1038.47	1.4187	1732	3.958
303.15 K, x1 = 0.3001	1043.03	1.4363	1713	4.365
303.15 K, x1 = 0.3994	1042.22	1.4467	1679.1	3.959
303.15 K, x1 = 0.4997	1039.51	1.4533	1644.5	3.318
303.15 K, x1 = 0.6001	1035.8	1.4576	1612.7	2.71
303.15 K, x1 = 0.6997	1032.32	1.4608	1585.3	2.279
303.15 K, x1 = 0.7982	1029.36	1.4628	1562.6	1.969
303.15 K, x1 = 0.899	1026.41	1.4649	1542.6	1.705
303.15 K, x1 = 1	1023.95	1.4664	1526.5	1.553
313.15 K, x1 = 0.1	1016.67	1.3863	1674	1.75
313.15 K, x1 = 0.2	1029.62	1.4165	1697	2.749
313.15 K, x1 = 0.3001	1033.55	1.4331	1674.3	3.01
313.15 K, x1 = 0.3994	1032.64	1.4425	1639.3	2.89
313.15 K, x1 = 0.4997	1030.02	1.4492	1604.6	2.51
313.15 K, x1 = 0.6001	1026.44	1.4534	1573.2	2.153
313.15 K, x1 = 0.6997	1023.08	1.4565	1546.8	1.834
313.15 K, x1 = 0.7982	1020.23	1.4584	1523.9	1.641
313.15 K, x1 = 0.899	1017.37	1.4604	1504.1	1.46
313.15 K, x1 = 1	1015.03	1.4621	1487.8	1.324
323.15 K, x1 = 0.1	1009.4	1.384	1651.4	1.348
323.15 K, x1 = 0.2	1020.59	1.4114	1661.6	2.065
323.15 K, x1 = 0.3001	1023.92	1.4283	1634.9	2.215
323.15 K, x1 = 0.3994	1022.94	1.4387	1599.4	2.161
323.15 K, x1 = 0.4997	1020.43	1.445	1565.5	1.959
323.15 K, x1 = 0.6001	1016.99	1.4495	1534.1	1.706
323.15 K, x1 = 0.6997	1013.78	1.4524	1507.6	1.485
323.15 K, x1 = 0.7982	1011.06	1.4546	1485.4	1.361
323.15 K, x1 = 0.899	1008.3	1.4564	1466	1.242
323.15 K, x1 = 1	1006.1	1.4576	1450.2	1.146
